Series [1] has as its system FXR-regulated gene expression in liver and ileum. In words: Mechanism of action: tissue RNA by RT-qPCR and RNAseq after single oral dose. Conditions: C57BL/6 mice, single oral 10 mg/kg, 6 hours. (In general: Real-time PCR tracks product formation cycle by cycle.)
Description: The RNA was analyzed by RT-qPCR and RNAseq.
For RNAseq analysis, mRNA was extracted from total liver and sequenced using standard Illumina library preparation and sequencing protocols. Differentially expressed genes (DEG) were determined using RSEM and edgeR software packages and analyzed using Advaita Bio's iPathwayGuide software.
Series [2] deals with mouse hepatocytes. In words: In vitro metabolic stability in cryopreserved hepatocytes (mouse). The series is classed as in vitro ADME. As to the method:
(§1) In vitro half-life values were determined and scaled to predict hepatic clearance (CLpred) and hepatic extraction using the well-stirred liver model with no correction for plasma protein as described in Obach et al., The Prediction of Human Pharmacokinetic Parameters from Preclinical and In Vitro Metabolism Data, J. of Pharmacology and Experimental Therapeutics, vol. 283, no. 1, pp. 46-58 (1997).

Series [3] relates to rat hepatocytes. The series can be described thus: In vitro metabolic stability in cryopreserved hepatocytes (rat). The series is classed as in vitro ADME. Conditions: Sprague-Dawley Rat. As to the method:
as §1

Series [4] can be described thus: Pharmacokinetics assay, dog. The class given is in vivo, beagle dogs. Conditions: plasma, iv, Beagle Dog, intravenously 1 mg/kg. From the text:
Results are shown in FIG. 1A (IV administration) and FIG. 1B (oral administration), and in Table 2. […] Smaller Vdss in monkeys is correlated with higher plasma protein binding.

For series [5], the target named is T1, SSAO (Homo sapiens, UniProt Q16853).
T1 sequence (Q16853 1-763): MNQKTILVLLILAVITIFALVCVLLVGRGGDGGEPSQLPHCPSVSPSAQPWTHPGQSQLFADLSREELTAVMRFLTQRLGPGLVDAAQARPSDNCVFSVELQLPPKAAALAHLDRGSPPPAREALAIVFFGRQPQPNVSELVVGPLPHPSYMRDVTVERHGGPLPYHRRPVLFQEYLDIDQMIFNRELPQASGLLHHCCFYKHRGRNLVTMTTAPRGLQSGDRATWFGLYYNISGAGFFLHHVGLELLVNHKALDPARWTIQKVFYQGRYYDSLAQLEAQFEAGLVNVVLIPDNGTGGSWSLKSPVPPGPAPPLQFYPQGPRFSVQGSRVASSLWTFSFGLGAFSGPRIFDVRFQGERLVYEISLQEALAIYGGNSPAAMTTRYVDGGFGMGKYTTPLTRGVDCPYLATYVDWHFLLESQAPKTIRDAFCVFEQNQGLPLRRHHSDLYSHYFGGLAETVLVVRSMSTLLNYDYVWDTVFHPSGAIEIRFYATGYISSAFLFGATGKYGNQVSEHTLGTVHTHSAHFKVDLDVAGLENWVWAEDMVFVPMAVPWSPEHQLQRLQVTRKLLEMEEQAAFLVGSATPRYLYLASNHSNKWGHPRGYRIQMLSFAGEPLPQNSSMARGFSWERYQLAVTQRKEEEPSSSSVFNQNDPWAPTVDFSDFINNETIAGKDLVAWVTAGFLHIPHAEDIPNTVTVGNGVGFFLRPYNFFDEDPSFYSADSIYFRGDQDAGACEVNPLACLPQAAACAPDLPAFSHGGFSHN
In words: Biochemical activity, SSAO.

Series [6] is described as follows: Single-ascending dose clinical trial: plasma PK and safety.
Description: SSAO inhibition was determined by measuring relative reductions in plasma H2O2 generation after addition of an exogenous substrate (benzylamine). […] Safety was assessed for 7 (±3) days after dosing.
Plasma PK parameters were determined by non-compartmental analysis. […] Percent change in total amine oxidase activity was determined relative to the corresponding pre-dose (baseline) samples.
The target in series [7] is T2, MAO-B (Homo sapiens, UniProt P27338).
T2 sequence (P27338 1-520): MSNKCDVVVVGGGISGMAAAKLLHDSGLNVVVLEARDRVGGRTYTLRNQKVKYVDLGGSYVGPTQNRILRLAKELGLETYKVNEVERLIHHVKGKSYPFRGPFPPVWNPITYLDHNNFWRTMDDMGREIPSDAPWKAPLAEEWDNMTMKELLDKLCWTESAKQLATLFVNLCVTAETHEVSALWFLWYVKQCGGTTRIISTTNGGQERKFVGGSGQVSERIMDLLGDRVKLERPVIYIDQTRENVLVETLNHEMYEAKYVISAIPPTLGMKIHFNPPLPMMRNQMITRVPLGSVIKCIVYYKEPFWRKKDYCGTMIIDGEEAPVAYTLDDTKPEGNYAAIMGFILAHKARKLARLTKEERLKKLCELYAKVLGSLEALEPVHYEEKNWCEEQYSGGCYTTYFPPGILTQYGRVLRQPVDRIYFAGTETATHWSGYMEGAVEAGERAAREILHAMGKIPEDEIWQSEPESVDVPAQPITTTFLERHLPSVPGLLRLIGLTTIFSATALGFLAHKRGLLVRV
The series can be described thus: Biochemical activity, MAO-B.

Series [8] has as its target T3, plasma SSAO (Homo sapiens, UniProt Q16853).
T3 construct: from tissue; host or cells: plasma of healthy participants
T3 sequence (Q16853 27-763 limits assumed): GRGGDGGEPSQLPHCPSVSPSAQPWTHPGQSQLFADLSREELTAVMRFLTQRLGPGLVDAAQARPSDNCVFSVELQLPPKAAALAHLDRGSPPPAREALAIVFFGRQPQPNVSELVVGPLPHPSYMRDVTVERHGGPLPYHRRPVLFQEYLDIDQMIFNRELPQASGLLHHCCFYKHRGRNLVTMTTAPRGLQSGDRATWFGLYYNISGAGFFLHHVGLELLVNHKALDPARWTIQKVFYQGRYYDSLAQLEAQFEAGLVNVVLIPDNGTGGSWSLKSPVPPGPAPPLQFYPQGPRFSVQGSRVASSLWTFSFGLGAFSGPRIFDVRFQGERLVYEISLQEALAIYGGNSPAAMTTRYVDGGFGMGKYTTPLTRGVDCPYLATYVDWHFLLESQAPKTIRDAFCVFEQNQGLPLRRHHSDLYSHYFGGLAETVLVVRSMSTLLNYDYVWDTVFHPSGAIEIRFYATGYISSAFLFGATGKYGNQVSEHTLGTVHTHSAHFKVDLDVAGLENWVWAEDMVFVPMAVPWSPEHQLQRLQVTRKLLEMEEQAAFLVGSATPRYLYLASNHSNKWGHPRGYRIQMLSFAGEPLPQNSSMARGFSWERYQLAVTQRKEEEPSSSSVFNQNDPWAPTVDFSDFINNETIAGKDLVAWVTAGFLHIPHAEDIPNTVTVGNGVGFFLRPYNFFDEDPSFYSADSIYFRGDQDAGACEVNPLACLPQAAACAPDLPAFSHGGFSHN
The series can be described thus: Multiple once daily dose study: plasma amine oxidase activity and methylamine. The class given is in vivo. The procedure: 3 groups of 8 healthy participants were randomized to receive multiple once daily (QD) doses of Compound 2 or matching placebo in a 3:1 ratio for 7 days (1 mg and 4 mg) or 14 days (10 mg). Plasma levels of Compound 2 and PD biomarkers (plasma amine oxidase activity and methylamine levels) were determined at pre-dose and various timepoints post-dose. Safety was assessed for up to 14 days after last dose.

pIC50: −log10 of the molar value.

For `Cn1cc(C(=O)O)c2ccc(N3CCC(OCc4c(-c5c(Cl)cccc5Cl)noc4C4CC4)CC3)cc21` [Compound 1], the “induction of FXR-specific genes, liver versus ileum (RT-qPCR)” value in series [1] is given as “preferentially induces FXR-specific genes in the liver”. Further, the “Hepatic Extraction” value in series [2] was determined as 80.7 ± 1.02%; in series [3], 47.3 ± 0.78%. Further, the “In vitro Metabolic CLpred” value in series [2] (well-stirred liver model) was 72.7 ± 1 mL/min/kg; in series [3] (well-stirred liver model), 26.2 ± 0.5 mL/min/kg. Also, the half-life in series [4] (read-out: IV Terminal t1/2 (converted)) is 5.67 h. In addition, the Vd in series [4] (read-out: Vdss) was found to be 1.92 L/kg.

As a reminder, the pIC50 is the negative decadic logarithm of the IC50, by convention in mol/L. High values mean a small IC50, low ones a large IC50. On to `COC1CCN(c2ncc(OC/C(=C/F)CN)cn2)CC1` [Compound 2], for which the pIC50 in series [5] was 8.19; in series [7] it was under 4.30. Moreover, the “plasma PK exposure increase with dose” value in series [6] (between the 3 and 10 mg dose levels, single oral dose) was “greater than dose proportional”. In series [6] (doses 1, 3, 6, and 10 mg, single dose), the tolerability entry is “well tolerated”. The “adverse events or laboratory abnormalities” value in series [6] (healthy humans, single oral dose 1-10 mg) is given as “No clinically relevant adverse events or laboratory abnormalities were reported”. Besides, the half-life in series [6] (male, human, plasma, po, 10 mg) is 1 to 3 h. For the same compound, the “duration of continued suppression of plasma SSAO activity after last dose” value in series [8] (10 mg cohort (QD, 14 days)) is listed as “up to 2 weeks”. In addition, the “inhibition of plasma SSAO activity” value in series [8] (Day 1, all dose cohorts) was “Near complete inhibition”. The Plasma methylamine levels entry in series [8] (QD 1, 4, 10 mg) is “increased in a greater than dose proportional manner”.

The values are drawn from patent US20210379040A1, “COMBINATION TREATMENT OF LIVER DISORDERS” (Terns Pharmaceuticals, Inc., priority 2020, published 2021).
